The NIST ThermoML archive (doi:10.1016/j.jct.2008.05.005)

Assay: xn = mol fraction of the nth substance listed
Conditions: Liquid, Vibrating tube method

CCCCn1cc[n+](C)c1.F[B-](F)(F)F [1-butyl-3-methylimidazolium tetrafluoroborate] + CO
Conditions | mass density [kg/m3]
298.15 K, 210 kPa, x1 = 0.9102 | 1203.93
298.15 K, 240 kPa, x1 = 0.2626 | 1065.61
298.15 K, 250 kPa, x1 = 0.4988 | 1144.91
298.15 K, 300 kPa, x1 = 0.1302 | 975.12
298.15 K, 310 kPa, x1 = 0.7501 | 1186.96
298.15 K, 380 kPa, x1 = 0.0087 | 804.76
298.15 K, 400 kPa, x1 = 0.0433 | 867.22
298.15 K, 4380 kPa, x1 = 0.0087 | 808.51
298.15 K, 5040 kPa, x1 = 0.9102 | 1206.16
298.15 K, 5080 kPa, x1 = 0.7501 | 1189.2
298.15 K, 5210 kPa, x1 = 0.2626 | 1068.88
298.15 K, 5270 kPa, x1 = 0.0433 | 871.22
298.15 K, 5310 kPa, x1 = 0.4988 | 1147.71
298.15 K, 5890 kPa, x1 = 0.1302 | 979.15
298.15 K, 10030 kPa, x1 = 0.7501 | 1191.5
298.15 K, 10030 kPa, x1 = 0.9102 | 1208.41
298.15 K, 10050 kPa, x1 = 0.4988 | 1150.25
298.15 K, 10080 kPa, x1 = 0.2626 | 1071.94
298.15 K, 10260 kPa, x1 = 0.0433 | 875.17
298.15 K, 10840 kPa, x1 = 0.1302 | 982.54
298.15 K, 10910 kPa, x1 = 0.0087 | 814.38
298.15 K, 15190 kPa, x1 = 0.0433 | 878.92
298.15 K, 15310 kPa, x1 = 0.9102 | 1210.74
298.15 K, 15330 kPa, x1 = 0.0087 | 818.18
298.15 K, 15380 kPa, x1 = 0.2626 | 1075.12
298.15 K, 15420 kPa, x1 = 0.7501 | 1193.96
298.15 K, 15620 kPa, x1 = 0.4988 | 1153.13
298.15 K, 15680 kPa, x1 = 0.1302 | 985.71
298.15 K, 19940 kPa, x1 = 0.0087 | 821.99
298.15 K, 20020 kPa, x1 = 0.0433 | 882.44
298.15 K, 20070 kPa, x1 = 0.9102 | 1212.8
298.15 K, 20140 kPa, x1 = 0.4988 | 1155.39
298.15 K, 20750 kPa, x1 = 0.2626 | 1078.17
298.15 K, 20890 kPa, x1 = 0.7501 | 1196.42
298.15 K, 20920 kPa, x1 = 0.1302 | 988.97
298.15 K, 25090 kPa, x1 = 0.2626 | 1080.52
298.15 K, 25120 kPa, x1 = 0.1302 | 991.46
298.15 K, 25410 kPa, x1 = 0.4988 | 1157.92
298.15 K, 25410 kPa, x1 = 0.9102 | 1215.05
298.15 K, 25420 kPa, x1 = 0.0433 | 886.2
298.15 K, 25680 kPa, x1 = 0.7501 | 1198.54
298.15 K, 25770 kPa, x1 = 0.0087 | 826.59
298.15 K, 30080 kPa, x1 = 0.0433 | 889.29
298.15 K, 30080 kPa, x1 = 0.7501 | 1200.46
298.15 K, 30090 kPa, x1 = 0.9102 | 1216.97
298.15 K, 30120 kPa, x1 = 0.2626 | 1083.1
298.15 K, 30410 kPa, x1 = 0.4988 | 1160.24
298.15 K, 30520 kPa, x1 = 0.0087 | 830.16
298.15 K, 31070 kPa, x1 = 0.1302 | 994.78
298.15 K, 35070 kPa, x1 = 0.2626 | 1085.49
298.15 K, 35290 kPa, x1 = 0.7501 | 1202.69
298.15 K, 35420 kPa, x1 = 0.0433 | 892.67
298.15 K, 35560 kPa, x1 = 0.1302 | 997.14
298.15 K, 35740 kPa, x1 = 0.0087 | 833.9
298.15 K, 35740 kPa, x1 = 0.4988 | 1162.61
298.15 K, 39560 kPa, x1 = 0.0433 | 895.16
298.15 K, 39780 kPa, x1 = 0.4988 | 1164.34
298.15 K, 39880 kPa, x1 = 0.0087 | 836.72
298.15 K, 39910 kPa, x1 = 0.7501 | 1204.65
298.15 K, 39910 kPa, x1 = 0.9102 | 1220.87
298.15 K, 39930 kPa, x1 = 0.9102 | 1220.88
298.15 K, 39960 kPa, x1 = 0.2626 | 1087.71
298.15 K, 40120 kPa, x1 = 0.1302 | 999.4
323.15 K, 230 kPa, x1 = 0.9102 | 1185.2
323.15 K, 240 kPa, x1 = 0.0087 | 781
323.15 K, 240 kPa, x1 = 0.7501 | 1168.14
323.15 K, 260 kPa, x1 = 0.1302 | 952.36
323.15 K, 440 kPa, x1 = 0.0433 | 844.94
323.15 K, 670 kPa, x1 = 0.2626 | 1046.2
323.15 K, 780 kPa, x1 = 0.4988 | 1126.41
323.15 K, 5040 kPa, x1 = 0.9102 | 1187.61
323.15 K, 5070 kPa, x1 = 0.7501 | 1170.7
323.15 K, 5310 kPa, x1 = 0.4988 | 1128.87
323.15 K, 5320 kPa, x1 = 0.2626 | 1049.53
323.15 K, 5430 kPa, x1 = 0.0433 | 849.82
323.15 K, 5440 kPa, x1 = 0.0087 | 786.6
323.15 K, 6310 kPa, x1 = 0.1302 | 957.29
323.15 K, 10030 kPa, x1 = 0.9102 | 1190.07
323.15 K, 10080 kPa, x1 = 0.2626 | 1052.82
323.15 K, 10090 kPa, x1 = 0.4988 | 1131.48
323.15 K, 10140 kPa, x1 = 0.1302 | 960.32
323.15 K, 10160 kPa, x1 = 0.0433 | 854.23
323.15 K, 10340 kPa, x1 = 0.7501 | 1173.44
323.15 K, 11020 kPa, x1 = 0.0087 | 792.32
323.15 K, 15060 kPa, x1 = 0.2626 | 1056.14
323.15 K, 15120 kPa, x1 = 0.1302 | 964.14
323.15 K, 15250 kPa, x1 = 0.0433 | 858.75
323.15 K, 15420 kPa, x1 = 0.4988 | 1134.4
323.15 K, 15430 kPa, x1 = 0.7501 | 1176.04
323.15 K, 15440 kPa, x1 = 0.0087 | 796.64
323.15 K, 15470 kPa, x1 = 0.9102 | 1192.72
323.15 K, 20070 kPa, x1 = 0.7501 | 1178.36
323.15 K, 20090 kPa, x1 = 0.9102 | 1194.92
323.15 K, 20110 kPa, x1 = 0.1302 | 967.85
323.15 K, 20340 kPa, x1 = 0.0433 | 863.04
323.15 K, 20430 kPa, x1 = 0.2626 | 1059.59
323.15 K, 20640 kPa, x1 = 0.0087 | 801.47
323.15 K, 20740 kPa, x1 = 0.4988 | 1137.33
323.15 K, 25030 kPa, x1 = 0.4988 | 1139.71
323.15 K, 25090 kPa, x1 = 0.7501 | 1180.84
323.15 K, 25120 kPa, x1 = 0.1302 | 971.44
323.15 K, 25310 kPa, x1 = 0.9102 | 1197.38
323.15 K, 25630 kPa, x1 = 0.0433 | 867.24
323.15 K, 25660 kPa, x1 = 0.0087 | 805.89
323.15 K, 25810 kPa, x1 = 0.2626 | 1062.91
323.15 K, 29940 kPa, x1 = 0.0433 | 870.48
323.15 K, 30010 kPa, x1 = 0.4988 | 1142.47
323.15 K, 30090 kPa, x1 = 0.2626 | 1065.44
323.15 K, 30410 kPa, x1 = 0.7501 | 1183.41
323.15 K, 30440 kPa, x1 = 0.1302 | 975.12
323.15 K, 30450 kPa, x1 = 0.9102 | 1199.76
323.15 K, 30560 kPa, x1 = 0.0087 | 809.96
323.15 K, 35210 kPa, x1 = 0.0433 | 874.21
323.15 K, 35240 kPa, x1 = 0.2626 | 1068.37
323.15 K, 35240 kPa, x1 = 0.4988 | 1145.39
323.15 K, 35240 kPa, x1 = 0.7501 | 1185.69
323.15 K, 35450 kPa, x1 = 0.0087 | 813.8
323.15 K, 35620 kPa, x1 = 0.1302 | 978.57
323.15 K, 35860 kPa, x1 = 0.9102 | 1202.22
323.15 K, 39410 kPa, x1 = 0.0087 | 816.73
323.15 K, 39620 kPa, x1 = 0.1302 | 981.14
323.15 K, 39860 kPa, x1 = 0.9102 | 1204.01
323.15 K, 39890 kPa, x1 = 0.0433 | 877.31
323.15 K, 39890 kPa, x1 = 0.7501 | 1187.86
323.15 K, 39970 kPa, x1 = 0.2626 | 1070.95
323.15 K, 39970 kPa, x1 = 0.4988 | 1148.04
348.15 K, 340 kPa, x1 = 0.1302 | 931.46
348.15 K, 420 kPa, x1 = 0.9102 | 1166.95
348.15 K, 610 kPa, x1 = 0.4988 | 1107.55
348.15 K, 640 kPa, x1 = 0.0087 | 757.2
348.15 K, 710 kPa, x1 = 0.0433 | 821.46
348.15 K, 860 kPa, x1 = 0.2626 | 1026.35
348.15 K, 870 kPa, x1 = 0.7501 | 1150.03
348.15 K, 5060 kPa, x1 = 0.2626 | 1029.49
348.15 K, 5070 kPa, x1 = 0.7501 | 1152.55
348.15 K, 5310 kPa, x1 = 0.9102 | 1169.75
348.15 K, 5370 kPa, x1 = 0.0433 | 826.71
348.15 K, 5410 kPa, x1 = 0.4988 | 1110.43
348.15 K, 5710 kPa, x1 = 0.1302 | 936.68
348.15 K, 6020 kPa, x1 = 0.0087 | 763.72
348.15 K, 10060 kPa, x1 = 0.4988 | 1113.45
348.15 K, 10060 kPa, x1 = 0.7501 | 1155.48
348.15 K, 10070 kPa, x1 = 0.9102 | 1172.42
348.15 K, 10410 kPa, x1 = 0.2626 | 1033.58
348.15 K, 10670 kPa, x1 = 0.0433 | 832.4
348.15 K, 10820 kPa, x1 = 0.1302 | 941.38
348.15 K, 10960 kPa, x1 = 0.0087 | 769.43
348.15 K, 15090 kPa, x1 = 0.2626 | 1037.07
348.15 K, 15120 kPa, x1 = 0.0087 | 774.02
348.15 K, 15120 kPa, x1 = 0.4988 | 1116.66
348.15 K, 15140 kPa, x1 = 0.1302 | 945.16
348.15 K, 15150 kPa, x1 = 0.0433 | 836.97
348.15 K, 15420 kPa, x1 = 0.9102 | 1175.35
348.15 K, 15870 kPa, x1 = 0.7501 | 1158.8
348.15 K, 20070 kPa, x1 = 0.4988 | 1119.71
348.15 K, 20080 kPa, x1 = 0.7501 | 1161.16
348.15 K, 20110 kPa, x1 = 0.0433 | 841.77
